Article PMC8406801, “Naringenin Inhibits Platelet Activation and Arterial Thrombosis Through Inhibition of Phosphoinositide 3-Kinase and Cyclic Nucleotide Signaling” (Frontiers in Pharmacology, 2021)
“And” between values parts separate entries of the source, which are not always exact repeats. Identical values can stand only once.

Tests used:
[1] = tested on: PDE extracts prepared from rat PRP (cGMP hydrolysis); assay: Phosphodiesterase activity in platelet extracts, hydrolysis of cGMP (HPLC); type: biochemical; conditions: vehicle = 100%, single replicates
Method: The effects of naringenin on PDE activity were determined using high-performance liquid chromatography (HPLC) ([Hu et al., 2011]). Briefly, PRP was pelleted by centrifugation for 10 min at 900 × g and homogenized in PBS containing 0.1% Triton X-100 using an ultrasonic homogenizer. After centrifugation at 12,000 × g for 20 min at 4°C, the supernatant was subjected to PDE activity assay.
DMSO vehicle or different concentrations naringenin were added to assay buffer (137 mM NaCl, 2.7 mM KCl, 8.8 mM Na2HPO4, 1.5 mM KH2PO4, 1 mM CaCl2, 1 mM MgCl2, pH 7,4) containing cAMP or cGMP. The reaction was initiated by adding 30 μL PDE extracts prepared from rat PRP as described above. Some extracts were boiled for 3 min to inactivate PDE before addition. After incubation for 30 min at […], the reaction was terminated by boiling the mixture for 3 min. Subsequently, the mixture was cooled on ice followed by centrifugation at 12,000 × g for 20 min at 4°C. The supernatant was subjected cAMP or cGMP assay using HPLC. PDE activity was expressed as percentages of the hydrolysis of cAMP or cGMP.

PRP of treated rats = assay: Ex vivo ADP (5 μM)-induced platelet aggregation after oral dosing; type: in vivo, rat; conditions: for Aggregation (%): ex vivo, Figure 8A; for ADP-induced platelet aggregation ex vivo: rats, ADP 5 μM, mean ± SD, n = 6, vehicle 63.2 ± 3.6
Method: Male SD rats were randomly divided into 5 groups with 6 rats in each group. […] Sixty minutes after the last sample treatment, blood was drawn from the abdominal aorta of rats into the siliconized vacutainers containing 1:9 (v/v) 3.8% sodium citrate. The collected blood was centrifuged at 100 × g for 10 min at room temperature to obtain PRP. […] The platelet counts of PRP were adjusted to 4×10^8 cells/mL using PPP. PRP was incubated for 5 min at 37°C and then stimulated by ADP (5 μM). The maximum platelet aggregation rate was determined as mentioned above.

[2] = tested on: VASP Ser239 phosphorylation; assay: Immunoblotting of phospho-VASP (Ser239) in ADP-stimulated washed platelets, with or without PKA, PKG, PKC inhibitors; type: cell-based, rat; conditions: for p-VASP(Ser239) / GAPDH (Fold to ADP only) / p-VASP(Ser239) / GAPDH (raw data): ADP-stimulated, Figure 7C
Method: For in vitro platelet aggregation, aliquots of washed platelets were preincubated with vehicle or various concentrations of naringenin for 5 min and stimulated with ADP (10 μmol/L) under stirring at 37°C for 5 min. For ex vivo platelet aggregation, PRP was incubated at 37°C for 5 min and stimulated with ADP (5 μmol/L) under stirring at 37 °C. The platelet aggregation was terminated by adding ethylenediaminetetraacetic acid (EDTA; 10 mM). Total protein was prepared using RIPA lysis buffer and protein content was determined by bicinchoninic acid (BCA) protein assay kit. Equal amounts of platelet proteins (30 μg) were separated on 10% SDS polyacrylamide gel electrophoresis (SDS-PAGE) and then transferred to poly vinylidene difluoride (PVDF) membranes and subjected to western blot. Blots were blocked with TBS-Tween 20 containing 5% BSA and probed with primary antibodies diluted in blocking solution at 4°C overnight followed by incubation with the corresponding HRP secondary antibodies. The protein bands were visualized using enhanced chemiluminescence (ECL).
VASP is a substrate for cAMP- and cGMP- dependent protein kinases, which mediate cAMP- and cGMP-dependent inhibitory signaling in platelets, respectively. Increased cAMP levels followed by the activation of cAMP-dependent protein kinase A (PKA) phosphorylates VASP at position Ser157, whereas the elevation of cGMP leads to VASP phosphorylation at position Ser239 by cGMP-dependent protein kinase G (PKG) ([Aszódi et al., 1999]; [Li et al., 2003a]). To further examine whether naringenin modulates cAMP- or cGMP-mediated inhibitory signaling, the phosphorylation of VASP (Ser157 and Ser239) in washed platelets on stimulation with ADP were measured in the absence or presence of naringenin (100, 200, 400, and 800 μM). […] To further confirm the antiplatelet effects of naringenin through PKA-dependent signaling, the effects of naringenin on platelet aggregation were measured in the presence of PKG inhibitor (Rp-8-Br-PET-cGMPS) and PKA inhibitor (H89).
FIGURE 7 Naringenin promotes VASP phosphorylation. The effects of naringenin on phosphorylation of VASP (at positions Ser 157 and Ser239) were measured in washed platelets upon stimulation with ADP (10 μmol/L) by western blotting (A). The blots shown are representative of three separate experiments. The phosphorylation levels were quantified by ImageJ 1.47v software. The level of phosphorylation obtained with vehicle control (0 μM) was taken as 1 (B,C). R represents the phosphorylation level in resting platelets. Data are expressed as means ± SD (n = 3). *p < 0.05, ***p < 0.001 compared with the vehicle control group. VASP phosphorylation at Ser239 was also analyzed in washed platelets incubated with 5 μmol/L PKA (H89), 30 μmol/L PKG (Rp-8-Br-PET-cGMPS), or 5 μmol/L PKC (GF109203X) inhibitors before treatment with naringenin (D). Washed platelets were incubated with vehicle or naringenin (200 μmol/L) at 37°C in the presence or absence of 5 μmol/L PKA (H89) or 30 μmol/L PKG (Rp-8-Br-PET-cGMPS) inhibitors. After treatment, platelets were stimulated with ADP (10 μmol/L) to trigger aggregation (E). Data are expressed as means ± SD (n = 6). ***p < 0.001 compared with the ADP-treated group, ^# p < 0.05, ^### p < 0.001 compared with naringenin alone or H89 alone.

washed rat platelets = assay: ADP (5 μM)-stimulated aggregation of washed platelets (Figure S1); type: cell-based; conditions: 200, 400 and 800 μM similar efficacy
Text: Platelet aggregation was induced by ADP using washed platelets and PRP. […]
(1 picture or pasted object on this page, not shown here)

With `O=C1C[C@@H](c2ccc(O)cc2)Oc2cc(O)cc(O)c21` [Naringenin] the “PDE activity (%)” value ([1]; 100 μM) was 55.89% and 98.26% and 70.79%, the “PDE activity (%)” value ([1]; 200 μM) was 55.23% and 54.30% and 66.68% and the “PDE activity (%)” value ([1]; 400 μM) was 64.97% and 53.69% and 55.23%. For the same molecule, the “PDE activity (%)” value ([1]; 800 μM) was 56.89% and 50.38% and 49.55%, the “Aggregation (%)” value (PRP of treated rats; naringenin 200mg/kg) was 44.3% and 43.6% and 49.2% and 46.7% and 39.1% and 43% and the “Aggregation (%)” value (PRP of treated rats; naringenin 400mg/kg) was 34.4% and 37.3% and 35.4% and 28% and 25.8% and 22.9%. The “Aggregation (%)” value (PRP of treated rats; naringenin 800mg/kg) was 12.7% and 17.8% and 16.5% and 21.5% and 19.3% and 11.6%, the “ADP-induced platelet aggregation ex vivo” value (PRP of treated rats; oral 200 mg/kg once a day for 7 days) was 44.3 ± 3.4% and the “ADP-induced platelet aggregation ex vivo” value (PRP of treated rats; oral 400 mg/kg once a day for 7 days) was 30.6 ± 5.9%. For the same molecule, the “ADP-induced platelet aggregation ex vivo” value (PRP of treated rats; oral 800 mg/kg once a day for 7 days) was 16.6 ± 3.8%, the “phosphorylation of VASP at Ser239” value ([2]; ADP-stimulated washed platelets, 100, 200, 400, and 800 μM) was “induced the phosphorylation of VASP at Ser239” and the “p-VASP(Ser239) / GAPDH (Fold to ADP only)” value ([2]; naringenin 100 μM) was 5.3418 and 4.6396 and 5.0239. The “p-VASP(Ser239) / GAPDH (raw data)” value ([2]; naringenin 100 μM) was 0.6957 and 0.6043 and 0.6543, the “p-VASP(Ser239) / GAPDH (Fold to ADP only)” value ([2]; naringenin 200 μM) was 4.4032 and 4.7219 and 3.7689 and the “p-VASP(Ser239) / GAPDH (raw data)” value ([2]; naringenin 200 μM) was 0.5735 and 0.6150 and 0.4909. The “p-VASP(Ser239) / GAPDH (Fold to ADP only)” value ([2]; naringenin 400 μM) was 4.5890 and 4.9045 and 3.3393, the “p-VASP(Ser239) / GAPDH (raw data)” value ([2]; naringenin 400 μM) was 0.5977 and 0.6388 and 0.4349 and the “p-VASP(Ser239) / GAPDH (Fold to ADP only)” value ([2]; naringenin 800 μM) was 5.3132 and 6.0564 and 4.7205. For the same molecule, the “p-VASP(Ser239) / GAPDH (raw data)” value ([2]; naringenin 800 μM) was 0.6920 and 0.7888 and 0.6148 and the “effect on ADP (5 μM)-stimulated platelet aggregation” value (washed rat platelets) was “significant levels of inhibition”.
